Reference: US20020019356A1, “HYPERBARIC OXIGENATION (HBO) AS THE METHOD FOR ENHANCEMENT EFFICIENCY OF ANTI-HIV SUBSTANCES IN INHIBITION THE HUMAN IMMUNODEFICIENCY VIRUS (HIV) REPRODUCTION AND REDUCTION OF THE CYTOTOXIC EFFECT OF THOSE SUBSTANCES AS WELL” (priority 1998, published 2002)

Key:
HIV-1BRU = experiment: Viral antigen content (polyclonal EIA) in supernatant of Supt1 culture infected with HIV-1BRU, with or without HBO; format: cell-based, Human Immunodeficiency Virus; design: unit not given here; conditions: Supt1/HIV-1BRU
Procedure: 1.) Determination of the total level of viral antigen expression by means of the method of polyclonal immunoenzyme analysis (EIA) [ABBOTT™ ELISA Kit]. […]
(§1) 18 million Supt1 cells in 60 ml of the growth medium RPMI-1640 with 10% fetal calf serum, 2 mM L-glutamine and […] genthamycin were placed in each of 2 plastic flasks (75 cm^3), mark Costar®, USA, one of which was subjected to HBO (Ox+), and the other was used for counterchecks with intact and infected cells without a HBO exposure (Ox−).
(§2) The HBO [6] was carried out in the oxygenous pressure chamber BLKS-303M. The pressure chamber was sealed, blown out with oxygen over 7 min till an oxygen concentration of 98-100% was obtained at the outlet of the pressure chamber, whereupon the oxygen pressure in said pressure chamber was increased up to 1.5 ate. The compression rate was 1,077 ate/min and the time period of isocompression was 40 min. After having finished the HBO process, the oxygen pressure was decreased to atmospheric during 6 min.
(§3) Over 40 min after a finish of the HBO—procedure in the each well of the 24-wells plate (Nuclon®, Denmark) added 45 μL of a cell suspension (3×10^5 cell/mL) and 50 μL of a growth substance with a different concentrations of AZT.
(§4) After an incubation over 2 hours at 37° C. an oxygenated and non-oxygenated samples were infected with HIV-1BRU (non-resistant to AZT) and HIV-1A216 (resistant to AZT),
(§5) After having centrifuged 24-wells plate at 300 g over 10 min, supernatant was taken out the wells by S-tips (besides […] of a cell's sediment), to which was added […] of the virus-containing supernatant of 480 TCID50.
(§6) After an incubation over two hours with the virus-containing inoculum at 37° C., the cells were there-fold washed off from residual virus by centrifugation with 300 g over 10 min in the 30-fold volume of the medium and in every well of 24-wells plate were added […] of the growth medium with corresponding AZT-concentration.
(§7) The mixed samples were cultivated in a thermostat at 37° C., 5% CO2 and 80% moisture content.
The experimental procedure was identically with that described in Example 1, except that there were monitored HIV-BRU antigen expression by the method of polyclonal EIA.

HIV-1A216 = experiment: Viral antigen content (polyclonal EIA) in supernatant of Supt1 culture infected with AZT-resistant HIV-1A216, with or without HBO; format: cell-based, Human Immunodeficiency Virus; conditions: Supt1/HIV-1A216
Procedure: 1.) Determination of the total level of viral antigen expression by means of the method of polyclonal immunoenzyme analysis (EIA) [ABBOTT™ ELISA Kit].
The values of 50 per cent effective AZT dose (ED50) were calculated conformably to oxidised and non-oxidised cells subsequently infected by HIV and treated by AZT in various concentrations.
ED50 values were derived according to the linear regression resulting averaged values of the optical density signal V(%) depending on the logarithm of AZT doses (10^−6; 10^−7; . . . 10^−12 M).[8]
Regression lines are determined with the following formula: […]
where <> and <> are regression coefficients, calculated by mean square root method.
as §1, §2, §3, §4, §5, §6, §7
The experimental procedure was identically with that described in Example 1, except that there were monitored HIV-1A216 antigen expression by the method of polyclonal EIA.

Supt1 cells = experiment: Viability of Supt1 cells with different AZT concentrations, with or without HBO (MTT-test); format: cell-based, human
Source text: 4.) Monitoring the viability by means of direct cell calculation in a Goryaev counting chamber after colouring with the excepting vital stain 0.2% trypan blue. For the direct comparison of the amounts of living cells there is used the so-called MTT-method, which is based on the capability of living cells to reduce the yellow water-soluble tetrazole salt MTT (3-(4,5)-dimethylthiazol-2-ye)-2,5-diphenyl-bromide tetrazole) into insoluble intracellular MTT-formazan crystals, whereas dead cells are not capable to do this.
A concentrated MTT solution of 10 mg/ml is prepared with a phosphate buffer solution at pH 7.4 and brought into a hollow with the cells at a 10-fold dilution rate.
After incubation over 4 hours at 37° C. the supernatant is isolated with help of microdosing tips of a special design (S-tips).
Into the hollow is added […] of DMSO as solvent. The thereupon measurable optical density is within 540 to 590 nm, i.e. in the absorption range of formazan, is direct proportional to the quantity of living cells.
as §1, §2, §3, §6
The mixed samples were cultivated in a thermostat at 37° C., 5% CO2 and 80% moisture content. […]
The monitoring results of viability of oxygenated and not-oxygenated cells Supt1, inoculated HIV-1BRU with different AZT-concentrations, are shown in Table 1.

[1] = AZT 10^−11 M, day 3 after infection, OX+
[2] = AZT 10^−11 M, day 3 after infection, OX−

## Cc1cn([C@H]2C[C@H](N=[N+]=[N-])[C@@H](CO)O2)c(=O)[nH]c1=O [AZT, 3-azido-2,3-didezoxythimidim]
HIV-1BRU; AZT 10^−7 M, day 3 after infection, OX+
  Content of viral antigen in supernatant: 8.8
HIV-1BRU; AZT 10^−7 M, day 3 after infection, OX−
  Content of viral antigen in supernatant: 8.0
HIV-1BRU; AZT 10^−7 M, day 5 after infection, OX+
  Content of viral antigen in supernatant: 9.9
HIV-1BRU; AZT 10^−7 M, day 5 after infection, OX−
  Content of viral antigen in supernatant: 50.2
HIV-1BRU; AZT 10^−9 M, day 3 after infection, OX+
  Content of viral antigen in supernatant: 7.4
HIV-1BRU; AZT 10^−9 M, day 3 after infection, OX−
  Content of viral antigen in supernatant: 14.5
HIV-1BRU; AZT 10^−9 M, day 5 after infection, OX+
  Content of viral antigen in supernatant: 21.5
HIV-1BRU; AZT 10^−9 M, day 5 after infection, OX−
  Content of viral antigen in supernatant: 82.3
HIV-1BRU; [1]
  Content of viral antigen in supernatant: 8.7
HIV-1BRU; [2]
  Content of viral antigen in supernatant: 14.4
HIV-1BRU; AZT 10^−11 M, day 5 after infection, OX+
  Content of viral antigen in supernatant: 62.0
HIV-1BRU; AZT 10^−11 M, day 5 after infection, OX−
  Content of viral antigen in supernatant: 83.4
HIV-1A216; AZT 10^−6 M, day 2 after infection, OX+
  Content of viral antigen in supernatant: 20.5
HIV-1A216; AZT 10^−6 M, day 2 after infection, OX−
  Content of viral antigen in supernatant: 21.8
HIV-1A216; AZT 10^−6 M, day 3 after infection, OX+
  Content of viral antigen in supernatant: 33.3
HIV-1A216; AZT 10^−6 M, day 3 after infection, OX−
  Content of viral antigen in supernatant: 51.1
HIV-1A216; AZT 10^−8 M, day 2 after infection, OX+
  Content of viral antigen in supernatant: 29.3
HIV-1A216; AZT 10^−8 M, day 2 after infection, OX−
  Content of viral antigen in supernatant: 33.1
HIV-1A216; AZT 10^−8 M, day 3 after infection, OX+
  Content of viral antigen in supernatant: 51.8
HIV-1A216; AZT 10^−8 M, day 3 after infection, OX−
  Content of viral antigen in supernatant: 70.7
HIV-1A216; AZT 10^−11 M, day 2 after infection, OX+
  Content of viral antigen in supernatant: 29.6
HIV-1A216; AZT 10^−11 M, day 2 after infection, OX−
  Content of viral antigen in supernatant: 48.2
HIV-1A216; [1]
  Content of viral antigen in supernatant: 44.5
HIV-1A216; [2]
  Content of viral antigen in supernatant: 92.1
Supt1 cells; AZT 10^−3 M, day 2 after AZT addition, HBO+
  viability of the cell culture Supt1 (MTT-test): 52.3 per cents
Supt1 cells; AZT 10^−3 M, day 2 after AZT addition, HBO−
  viability of the cell culture Supt1 (MTT-test): 45.3 per cents
Supt1 cells; AZT 10^−3 M, day 3 after AZT addition, HBO+
  viability of the cell culture Supt1 (MTT-test): 55.6 per cents
Supt1 cells; AZT 10^−3 M, day 3 after AZT addition, HBO−
  viability of the cell culture Supt1 (MTT-test): 51.1 per cents
Supt1 cells; AZT 10^−3 M, day 5 after AZT addition, HBO+
  viability of the cell culture Supt1 (MTT-test): 35.0 per cents
Supt1 cells; AZT 10^−3 M, day 5 after AZT addition, HBO−
  viability of the cell culture Supt1 (MTT-test): 25.3 per cents
Supt1 cells; AZT 10^−4 M, day 2 after AZT addition, HBO+
  viability of the cell culture Supt1 (MTT-test): 65.2 per cents
Supt1 cells; AZT 10^−4 M, day 2 after AZT addition, HBO−
  viability of the cell culture Supt1 (MTT-test): 63.1 per cents
Supt1 cells; AZT 10^−4 M, day 3 after AZT addition, HBO+
  viability of the cell culture Supt1 (MTT-test): 73.6 per cents
Supt1 cells; AZT 10^−4 M, day 3 after AZT addition, HBO−
  viability of the cell culture Supt1 (MTT-test): 50.5 per cents
Supt1 cells; AZT 10^−4 M, day 5 after AZT addition, HBO+
  viability of the cell culture Supt1 (MTT-test): 61.1 per cents
Supt1 cells; AZT 10^−4 M, day 5 after AZT addition, HBO−
  viability of the cell culture Supt1 (MTT-test): 55.1 per cents
Supt1 cells; AZT 10^−5 M, day 2 after AZT addition, HBO+
  viability of the cell culture Supt1 (MTT-test): 79.3 per cents
Supt1 cells; AZT 10^−5 M, day 2 after AZT addition, HBO−
  viability of the cell culture Supt1 (MTT-test): 72.3 per cents
Supt1 cells; AZT 10^−5 M, day 3 after AZT addition, HBO+
  viability of the cell culture Supt1 (MTT-test): 85.4 per cents
Supt1 cells; AZT 10^−5 M, day 3 after AZT addition, HBO−
  viability of the cell culture Supt1 (MTT-test): 70.0 per cents
Supt1 cells; AZT 10^−5 M, day 5 after AZT addition, HBO+
  viability of the cell culture Supt1 (MTT-test): 80.5 per cents
Supt1 cells; AZT 10^−5 M, day 5 after AZT addition, HBO−
  viability of the cell culture Supt1 (MTT-test): 71.9 per cents
Supt1 cells; AZT 10^−6 M, day 2 after AZT addition, HBO+
  viability of the cell culture Supt1 (MTT-test): 89.3 per cents
Supt1 cells; AZT 10^−6 M, day 2 after AZT addition, HBO−
  viability of the cell culture Supt1 (MTT-test): 52.7 per cents
Supt1 cells; AZT 10^−6 M, day 3 after AZT addition, HBO+
  viability of the cell culture Supt1 (MTT-test): 96.0 per cents
Supt1 cells; AZT 10^−6 M, day 3 after AZT addition, HBO−
  viability of the cell culture Supt1 (MTT-test): 80.2 per cents
Supt1 cells; AZT 10^−6 M, day 5 after AZT addition, HBO+
  viability of the cell culture Supt1 (MTT-test): 87.8 per cents
Supt1 cells; AZT 10^−6 M, day 5 after AZT addition, HBO−
  viability of the cell culture Supt1 (MTT-test): 73.0 per cents
Supt1 cells; AZT 10^−7 M, day 2 after AZT addition, HBO+
  viability of the cell culture Supt1 (MTT-test): 93.0 per cents
Supt1 cells; AZT 10^−7 M, day 2 after AZT addition, HBO−
  viability of the cell culture Supt1 (MTT-test): 53.8 per cents
Supt1 cells; AZT 10^−7 M, day 3 after AZT addition, HBO+
  viability of the cell culture Supt1 (MTT-test): 95.2 per cents
Supt1 cells; AZT 10^−7 M, day 3 after AZT addition, HBO−
  viability of the cell culture Supt1 (MTT-test): 114.1 per cents
Supt1 cells; AZT 10^−7 M, day 5 after AZT addition, HBO+
  viability of the cell culture Supt1 (MTT-test): 92.0 per cents
Supt1 cells; AZT 10^−7 M, day 5 after AZT addition, HBO−
  viability of the cell culture Supt1 (MTT-test): 79.2 per cents
Supt1 cells; AZT 10^−8 M, day 2 after AZT addition, HBO+
  viability of the cell culture Supt1 (MTT-test): 107.8 per cents
Supt1 cells; AZT 10^−8 M, day 2 after AZT addition, HBO−
  viability of the cell culture Supt1 (MTT-test): 100.6 per cents
Supt1 cells; AZT 10^−8 M, day 3 after AZT addition, HBO+
  viability of the cell culture Supt1 (MTT-test): 100.9 per cents
Supt1 cells; AZT 10^−8 M, day 3 after AZT addition, HBO−
  viability of the cell culture Supt1 (MTT-test): 118.3 per cents
Supt1 cells; AZT 10^−8 M, day 5 after AZT addition, HBO+
  viability of the cell culture Supt1 (MTT-test): 85.6 per cents
Supt1 cells; AZT 10^−8 M, day 5 after AZT addition, HBO−
  viability of the cell culture Supt1 (MTT-test): 85.9 per cents
Supt1 cells; AZT 10^−9 M, day 2 after AZT addition, HBO+
  viability of the cell culture Supt1 (MTT-test): 98.3 per cents
Supt1 cells; AZT 10^−9 M, day 2 after AZT addition, HBO−
  viability of the cell culture Supt1 (MTT-test): 95.2 per cents
Supt1 cells; AZT 10^−9 M, day 3 after AZT addition, HBO+
  viability of the cell culture Supt1 (MTT-test): 102.1 per cents
Supt1 cells; AZT 10^−9 M, day 3 after AZT addition, HBO−
  viability of the cell culture Supt1 (MTT-test): 98.6 per cents
Supt1 cells; AZT 10^−9 M, day 5 after AZT addition, HBO+
  viability of the cell culture Supt1 (MTT-test): 97.3 per cents
Supt1 cells; AZT 10^−9 M, day 5 after AZT addition, HBO−
  viability of the cell culture Supt1 (MTT-test): 80.1 per cents
